Our source for the IC50 values is US4452788A, “Substituted 8-phenylxanthines” (Warner-Lambert Company, priority 1982, dated 1984).

Structures can show the parent of a compound that is named as a salt. Where two headings read alike, the source gives them in different places.

In assay [1] the target is adenosine receptor. Briefly: adenosine receptor antagonism assayed by the procedure described in Proc. Natl. Acad. Sci. USA, 77, 5547 (1980). Conditions: procedure of Proc. Natl. Acad. Sci. USA, 77, 5547 (1980). The assay is classed as binding. From the text:
The relevant teachings of this manuscript are incorporated herein by reference.

Assay [2] has as its target adenosine receptor. Particulars: *Results reported in Proc. Natl. Acad. Sci. USA, 77, 5547(1980); cited from earlier work.

Usually IC50 stands for the midpoint of a concentration-inhibition curve.

In turn, `CCn1c(=O)c2[nH]c(-c3cccc(S(=O)(=O)NCCN(C)C)c3)nc2n(CC)c1=O` [C2 H5, C2 H5, H, 3-SO2 NH(CH2)2 N(CH3)2, 3-(1,3-Diethyl-2,3,6,7-tetrahydro-2,6,-dioxo-1H-purin-8-yl)-N-[2-(dimethylamino)ethyl]benzenesulfonamide] came in with an IC50 against adenosine receptor [1] of 0.55 µM. Same read-out and setting: under `CCn1c(=O)c2[nH]c(-c3cccc(S(=O)(=O)O)c3)nc2n(CC)c1=O` [C2 H5, C2 H5, H, 3-SO3 K, 3-(1,3-diethyl-2,3,6,7-tetrahydro-2,6-dioxo-1H-purin-8-yl)benzenesulfonic acid potassium salt] stands 37 µM. The same measure, in the same setting: under `CCn1c(=O)c2[nH]c(-c3ccc(S(=O)(=O)N4CCN(C)CC4)cc3)nc2n(CC)c1=O` [C2 H5, C2 H5, H, 4-SO2 N(CH2 CH2)2 NCH3, 1-[[4-(1,3-Diethyl-2,3,6,7-tetrahydro-2,6,-dioxo-1H-purin-8-yl)phenyl]sulfonyl]-4-methyl-piperazine] stands 0.15 µM; under `CCn1c(=O)c2[nH]c(-c3ccc(S(=O)(=O)N4CCOCC4)cc3)nc2n(CC)c1=O` [C2 H5, C2 H5, H, 4-SO2 N(CH2 CH2)2 O, 4-[[4-(1,3-Diethyl-2,3,6,7-tetrahydro-2,6-dioxo-1H-purin-8-yl)phenyl]sulfonyl]morpholine], 0.3 µM; under `CCn1c(=O)c2[nH]c(-c3ccc(S(N)(=O)=O)cc3)nc2n(CC)c1=O` [C2 H5, C2 H5, H, 4-SO2 NH2, 4-(1,3-diethyl-2,3,6,7-tetrahydro-2,6-dioxo-1H-purin-8-yl)benzenesulfonamide], 0.05 µM.

At adenosine receptor [1], `CCn1c(=O)c2[nH]c(-c3ccc(S(=O)(=O)NCCCN(C)C)cc3)nc2n(CC)c1=O` [C2 H5, C2 H5, H, 4-SO2 NH(CH2)3 N(CH3)2, 4-(1,3-Diethyl-2,3,6,7-tetrahydro-2,6-dioxo-1H-purin-8-yl)-N-[3-(dimethylamino)propyl]benzenesulfonamide] came in with an IC50 of 0.07 µM. `CCn1c(=O)c2[nH]c(-c3ccc(S(=O)(=O)O)cc3)nc2n(CC)c1=O` [C2 H5, C2 H5, H, 4-SO3 K]: at adenosine receptor [1], the concentration for half-maximal inhibition (IC50) came to 4.9 µM.

In the case of `Cn1c(=O)c2[nH]c(-c3ccc(S(=O)(=O)O)cc3)nc2n(C)c1=O` [CH3, CH3, H, 4-SO3 H, 4-(1,3-dimethyl-2,3,6,7-tetrahydro-2,6-dioxo-1H-purin-8-yl)benzenesulfonicacid], the IC50 on adenosine receptor [2] was 20 µM. With `CCCn1c(=O)c2[nH]c(-c3ccc(S(=O)(=O)NCCN(C)C)cc3)nc2n(CCC)c1=O` [N-[2-(Dimethylamino)ethyl]-4-(2,3,6,7-tetrahydro-2,6-dioxo-1,3-dipropyl-1H-purin-8-yl)benzenesulfonamide], on adenosine receptor [1], 0.01 µM corresponded to half-maximal inhibition (IC50). The same measure, in the same setting: under `CCCn1c(=O)c2[nH]c(-c3ccc(S(=O)(=O)O)cc3)nc2n(CCC)c1=O` [n-C3 H7, n-C3 H7, H, 4-SO3 K, 4-(1,3-dipropyl-2,3,6,7-tetrahydro-2,6-dioxo-1H-purin-8-yl)benzenesulfonic acid potassium salt] stands 0.1 µM.

On to `Cn1c(=O)c2[nH]cnc2n(C)c1=O` [theophylline], for which the IC50 on adenosine receptor [2] was 15 µM.
